US9359418B2, “Inhibitors of the T cell-specific alternative p38 activation pathway and methods of use” (The United States of America, as represented by the …, priority 2012, dated 2016)

What was measured:
Irf4 mRNA = Irf4 mRNA in splenocytes after intraperitoneal injection; assay type: in vivo, mice; conditions: 40 μg intraperitoneally; splenocytes 4 hours after injection, anti-CD3 plus anti-CD28 24 hours; versus vehicle control
Description: FIG. 7 is a graph showing expression of interferon regulatory factor 4 (Irf4) mRNA following in vivo treatment with (11R)-71-85. (11R)-71-85 (40 μg) or vehicle control was injected intraperitoneally into wild type mice. Four hours after injection, splenocytes were collected and stimulated with soluble anti-CD3 plus anti-CD28 for 24 hours. Irf4 mRNA expression was assessed by quantitative real time PCR.
(11R)-71-85 (40 μg) or vehicle control was injected intraperitoneally into wild type mice. Four hours after injection, splenocytes were collected and stimulated with soluble anti-CD3 plus anti-CD28 for 24 hours. Irf4 mRNA expression was assessed by quantitative real time PCR.

PANC02 tumors [1] = assay: PANC02 pancreatic tumor model, tumor growth after intra-tumor injection; assay type: in vivo, mice; conditions: relative to control animals
Description: FIGS. 9A-9C show injection of (11R)-71-85 stops the growth of established PANC02 tumors. WT C57BL/6 mice were injected with 7.5×10^5 PANC02 cells. After 16 days, mice received intra-tumor injections of (11R)-71-85 at the indicated amount or DMSO every other day. (FIG. 9A) Tumor volume from the start of injection (day 16) to day 42 in control mice and mice injected with 40 μg or 80 μg of (11R)-71-85. Sacrifice (sac.) of mice before day 42 is indicated. (FIG. 9B) weight and (FIG. 9C) appearance of the control (left) and treated (right) tumors on day 38.
The p38 MAPK has been implicated in the growth of some tumors that cause local inflammatory responses, such as pancreatic cancer. Therefore, (11R)-71-85 was tested in a pancreatic tumor model. WT C57BL/6 mice were injected with 7.5×10^5 PANC02 cells. After 16 days, mice received intra-tumor injections of 40 μg or 80 μg (11R)-71-85 or DMSO every other day. Tumor volume from the start of injection (day 16) to day 42 in control mice and mice injected with (11R)-71-85 or DMSO was determined (FIG. 9A). Weight (FIG. 9B) and appearance (FIG. 9C) of the control and treated tumors were assessed on day 38.

PANC02 tumors [2] = assay: PANC02 model, tumor vascularization (CD31 staining); assay type: in vivo; conditions: 80 μg intra-tumor every other day for 2.5 weeks; compared with control treated mice
Description: FIG. 11 is a pair of images showing that intra-tumor injection of (11R)-71-85 reduces tumor vascularization. WT C57BL/6 mice were injected with 7.5×10^5 PANC02 cells and 16 days later were injected with 80 μg of either (11R)-71-85 or (11R)-Scrambled. Mice received intra-tumor injections every other day for 2.5 weeks. Twenty-four hours after the last injection, tumors were collected, fixed in formalin, and stained for the endothelial marker CD31, an indicator of tumor vascularization.
Tumor vascularization was also assessed in WT mice treated with (11R)-71-85. WT C57BL/6 mice were injected with 7.5×10^5 PANC02 cells. After 16 days, mice received intra-tumor injections of 80 μg of (11R)-71-85 or (11R)-Scrambled every other day for 2.5 weeks. Twenty-four hours after the last injection, tumors were collected, fixed in formalin, and stained for the endothelial marker CD31, an indicator for tumor vascularization.

## (11R)-71-85: fusion protein: 11 arginine residues added to the N-terminus of the Gadd45α 71-85 peptide (LQIHFTLIQAFCCEN; N-terminal 11 arginine; UniProt P24522 71-85, looked up, fragment)
Irf4 mRNA
  Irf4 mRNA expression: significantly inhibited
PANC02 tumors [1]; 40 μg or 80 μg intra-tumor every other day from day 16 to day 42
  tumor volume: significantly decreased
PANC02 tumors [1]; intra-tumor injection every other day, day 38
  tumor weight: significantly decreased
PANC02 tumors [2]
  CD31 staining (tumor vascularization): significant reduction
